{"source": "paper PMC3024462", "about": "(Journal of medicinal chemistry, 2010)", "key": {"[1]": {"system": "HIV-1MDR/B (X4)", "assay_type": "cell-based", "details": "number in parentheses"}, "[2]": {"system": "HIV-1MDR/C (X4)", "assay_type": "cell-based", "details": "number in parentheses"}, "[3]": {"system": "HIV-1MDR/G (X4)", "assay_type": "cell-based", "details": "number in parentheses"}, "[4]": {"system": "HIV-1MDR/TM (X4)", "assay_type": "cell-based", "details": "number in parentheses"}, "[5]": {"system": "HIV-1MDR/MM (R5)", "assay_type": "cell-based", "details": "number in parentheses"}, "[6]": {"system": "HIV-1MDR/JSL (R5)", "assay_type": "cell-based", "details": "number in parentheses"}, "[7]": {"target": "HIV-1 protease (Human immunodeficiency virus type 1 group M subtype B, UniProt P04585)", "assay": "HIV-1 protease enzyme inhibitory assay", "assay_type": "biochemical", "details": "compared to inhibitor 35a"}, "[8]": {"system": "HIV-1LAI", "assay": "Antiviral activity in MT-2 human T-lymphoid cells exposed to HIV-1LAI, MTT assay", "assay_type": "cell-based"}}, "data": [{"compound": "COC(=O)N[C@H](C(=O)N[C@@H](Cc1ccccc1)[C@@H](O)CN(Cc1ccc(-c2ccccn2)cc1)NC(=O)[C@@H](NC(=O)OC)C(C)(C)C)C(C)(C)C", "note": "[ATV, atazanavir]", "values": [{"measurement": "fold change of EC50 compared to wild-type HIV-1ERS104pre", "setting": "[1]", "result": 174}, {"measurement": "fold change of EC50 compared to wild-type HIV-1ERS104pre", "setting": "[2]", "result": 14}, {"measurement": "fold change of EC50 compared to wild-type HIV-1ERS104pre", "setting": "[3]", "result": 7}, {"measurement": "fold change of EC50 compared to wild-type HIV-1ERS104pre", "setting": "[4]", "result": 28}, {"measurement": "fold change of EC50 compared to wild-type HIV-1ERS104pre", "setting": "[5]", "result": 76}, {"measurement": "fold change of EC50 compared to wild-type HIV-1ERS104pre", "setting": "[6]", "result": 109}]}, {"compound": "COc1ccc(S(=O)(=O)N(CC(C)C)C[C@@H](O)[C@H](Cc2ccccc2)NC(=O)O[C@@H]2CCO[C@@H]3OCC[C@@H]32)cc1", "note": "[Inhibitor 35b, (3aR,4R,7aS)-Hexahydro-2H-furo[2,3-b]pyran-4-yl ((2S,3R)-3-hydroxy-4-(N-isobutyl-4-methoxyphenylsulfonamido)-1-phenylbutan-2-yl)carbamate]", "values": [{"measurement": "fold change in Ki (loss of enzyme inhibitory potency)", "setting": "[7]", "result": "> 20", "unit": "fold"}, {"measurement": "ID50 (antiviral activity)", "setting": "[8]; MT-2 cells exposed to HIV-1LAI", "result": 0.019, "unit": "µM"}]}, {"compound": "COc1ccc(S(=O)(=O)N(CC(C)C)C[C@@H](O)[C@H](Cc2ccccc2)NC(=O)O[C@H]2CCC[C@H]3OCC[C@@H]23)cc1", "note": "[Inhibitor 35c, (3aR,4S,7aR)-Octahydrobenzofuran-4-yl (2S,3R)-3-hydroxy-4-(N-isobutyl-4-methoxyphenylsulfonamido)-1-phenylbutan-2-yl carbamate]", "values": [{"measurement": "fold change in Ki (loss of enzyme inhibitory potency)", "setting": "[7]", "result": 2, "unit": "fold"}, {"measurement": "fold decrease in antiviral activity", "setting": "[8]; compared to inhibitor 35a", "result": 16, "unit": "fold"}]}, {"compound": "COc1ccc(S(=O)(=O)N(CC(C)C)C[C@@H](O)[C@H](Cc2ccccc2)NC(=O)O[C@H]2CCO[C@H]3COC[C@H]32)cc1", "note": "[Inhibitor 35f, (4S,4aS,7aR)-Hexahydro-2H-furo[3,4-b]pyran-4-yl ((2S,3R)-3-hydroxy-4-(N-isobutyl-4-methoxyphenylsulfonamido)-1-phenylbutan-2-yl)carbamate]", "values": [{"measurement": "antiviral activity (in words)", "setting": "[8]; MT-2 cells exposed to HIV-1LAI", "result": "no antiviral activity"}]}]}
